The results in this text go back to US9315438B2, “Optically pure benzyl-4-chlorophenyl-C-glucoside derivative” (XUANZHU PHARMA CO., LTD., priority 2014, dated 2016).

One series deals with human SGLT-2 (Homo sapiens (Human), UniProt P31639). The series can be described thus: In-vitro [14C]-AMG uptake inhibition assay in CHO cells stably expressing human SGLT-2. Type of series: cell-based. Particulars: for Selectivity: SGLT-1 IC50 / SGLT-2 IC50. The procedure:
In the in-vitro assay for the pharmacological activities of the present compounds, the human SGLT-2 and SGLT-1 sequences were transfected to Chinese hamster ovary cells to express stably. By measuring inhibition of the sodium dependent adsorption of [^14C]-labeled […]-D-glucopyranoside (AMG) into the cells, the half-inhibition concentration IC50 was determined.
Buffer A (KRH—Na^+): 120 mM NaCl, 4.7 mM KCl, 1.2 mM MgCl2, 2.2 mM CaCl2, 10 mM HEPES (PH 7.4 with 1 mM Tris).
Buffer A− (KRH—NMG): 120 mM NMG, 4.7 mM KCl, 1.2 mM MgCl2, 2.2 mM CaCl2, 10 mM HEPES (PH 7.4 with 1 mM Tris).
Buffer D: 120 mM NaCl, 4.7 mM KCl, 1.2 mM MgCl2, 2.2 mM CaCl2, 10 mM HEPES, 0.5 mM phlorizin (PH 7.4 with 1 mM Tris).
(§1) Assay method: Human SGLT-2 and SGLT-1 sequences were stably expressed in the CHO cells. The cell culture was conducted in a 96-well plate for 12 hr. The plate was washed with KRH—Na+(Buffer A) or KRH-NMG (Buffer A−) buffering solution for three times, 2004/well. Then the plate was added with a buffering solution containing Buffer A or Buffer A− plus [^14C]-AMG (10 μCi/mL), 100 μL/well. The cell culture was conducted at 37° C. for 1 hr. Then, 100 μL of an ice pre-cooled buffering solution (Buffer D) was added to terminate the assay. The plate was washed for five times. Then an ice pre-cooled lytic buffering solution (100 mM NaOH solution) was added, 20 μL/well, and the centrifugation at 600 rpm was conducted for 5 mins. Then Microscint 40 solution was added, 80 μl/well, and the centrifugation at 600 rpm was conducted for 5 mins. Finally, the radioactivity of [^14C]-AMG was detected with MicroBeta Trilux (purchased from PerkinElmer Co. Ltd.) according to the scintillation counting method, and the half-inhibition concentration IC50 was calculated.

The target in a further series is human SGLT-1 (Homo sapiens (Human), UniProt P13866). The series can be described thus: In-vitro [14C]-AMG uptake inhibition assay in CHO cells stably expressing human SGLT-1. Format: cell-based. Particulars: human SGLT-1 in CHO cells. Here is the method:
as §1, with “In the in-vitro assay for the pharmacological activities of the present compounds, the human SGLT-2 and SGLT-1 sequences were transfected to Chinese hamster ovary cells to express stably. By measuring inhibition of the sodium dependent adsorption of [^14C]-labeled […]-D-glucopyranoside (AMG) into the cells, the half-inhibition concentration IC50 was determined. Buffer A (KRH—Na^+): 120 mM NaCl, 4.7 mM KCl, 1.2 mM MgCl2, 2.2 mM CaCl2, 10 mM HEPES (PH 7.4 with 1 mM Tris). Buffer A− (KRH—NMG): 120 mM NMG, 4.7 mM KCl, 1.2 mM MgCl2, 2.2 mM CaCl2, 10 mM HEPES (PH 7.4 with 1 mM Tris). Buffer D: 120 mM NaCl, 4.7 mM KCl, 1.2 mM MgCl2, 2.2 mM CaCl2, 10 mM HEPES, 0.5 mM phlorizin (PH 7.4 with 1 mM Tris). Assay” for “Assay”

The nature of series [1]: Rat in-vivo pharmacokinetic assay (PO). Particulars: male SD rats, PO 10 mg/kg, plasma. The procedure: Assay animals: 6-8 weeks aged male SD rats (purchased from Vital River Laboratories), 3 rats per compound, weighing 200-240 g.
Solvent: 0.5% MC (methyl cellulose) solution+0.1% SDS (sodium dodecyl sulfate).
Intragastric administration (PO): See Table 2
Blood collection: each of 200 μL whole blood were collected at 0.17 hr, 0.5 hr, 1 hr, 2 hr, 4 hr, 6 hr, 8 hr, 24 hr, 30 hr, 48 hr, 54 hr and 72 hr. The collected blood samples were centrifuged at 4° C. at 8000 rpm in a low temperature high-speed centrifuge (5415R, Eppendorf) for 6 mins to separate the blood plasma. The separated plasma was preserved at −80° C. in a refrigerator.
20 μL of the plasma was carefully taken out, to which was added 600 µL of an internal standard MTBE (methyl tert-butyl ether) solution (containing internal standard dapagliflozin 25 ng/ml). The plasma was subjected to a vortex at 1500 rpm for 10 mins, and then centrifuged at 12000 rpm for 5 mins. 4004 of the supernatant was taken and blow-dried with nitrogen gas. The dried substance was redissolved with 2004 of a redissolving solution (acetonitrile:water=7:3). The solution was subjected to a vortex for 10 mins, and analyzed with LC-MS/MS (API4000, Applied Biosystems).

human SGLT-1, sequence (P13866 whole entry): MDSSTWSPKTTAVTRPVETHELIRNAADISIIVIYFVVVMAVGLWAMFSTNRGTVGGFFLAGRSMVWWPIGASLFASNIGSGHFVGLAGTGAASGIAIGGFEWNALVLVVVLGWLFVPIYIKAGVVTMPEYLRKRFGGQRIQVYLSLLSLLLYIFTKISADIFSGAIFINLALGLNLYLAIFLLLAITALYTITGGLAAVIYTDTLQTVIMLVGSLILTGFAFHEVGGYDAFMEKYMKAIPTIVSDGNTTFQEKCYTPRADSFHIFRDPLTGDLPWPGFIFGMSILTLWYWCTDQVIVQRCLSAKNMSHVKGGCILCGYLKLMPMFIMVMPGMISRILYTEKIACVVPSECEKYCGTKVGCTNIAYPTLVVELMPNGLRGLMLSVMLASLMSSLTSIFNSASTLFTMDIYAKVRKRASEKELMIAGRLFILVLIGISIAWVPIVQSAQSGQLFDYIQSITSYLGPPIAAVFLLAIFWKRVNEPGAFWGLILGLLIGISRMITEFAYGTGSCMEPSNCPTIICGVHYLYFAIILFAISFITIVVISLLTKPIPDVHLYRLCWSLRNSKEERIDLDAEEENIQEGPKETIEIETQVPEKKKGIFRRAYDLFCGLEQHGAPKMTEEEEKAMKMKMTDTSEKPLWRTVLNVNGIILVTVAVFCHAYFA
human SGLT-2, sequence (P31639 whole entry): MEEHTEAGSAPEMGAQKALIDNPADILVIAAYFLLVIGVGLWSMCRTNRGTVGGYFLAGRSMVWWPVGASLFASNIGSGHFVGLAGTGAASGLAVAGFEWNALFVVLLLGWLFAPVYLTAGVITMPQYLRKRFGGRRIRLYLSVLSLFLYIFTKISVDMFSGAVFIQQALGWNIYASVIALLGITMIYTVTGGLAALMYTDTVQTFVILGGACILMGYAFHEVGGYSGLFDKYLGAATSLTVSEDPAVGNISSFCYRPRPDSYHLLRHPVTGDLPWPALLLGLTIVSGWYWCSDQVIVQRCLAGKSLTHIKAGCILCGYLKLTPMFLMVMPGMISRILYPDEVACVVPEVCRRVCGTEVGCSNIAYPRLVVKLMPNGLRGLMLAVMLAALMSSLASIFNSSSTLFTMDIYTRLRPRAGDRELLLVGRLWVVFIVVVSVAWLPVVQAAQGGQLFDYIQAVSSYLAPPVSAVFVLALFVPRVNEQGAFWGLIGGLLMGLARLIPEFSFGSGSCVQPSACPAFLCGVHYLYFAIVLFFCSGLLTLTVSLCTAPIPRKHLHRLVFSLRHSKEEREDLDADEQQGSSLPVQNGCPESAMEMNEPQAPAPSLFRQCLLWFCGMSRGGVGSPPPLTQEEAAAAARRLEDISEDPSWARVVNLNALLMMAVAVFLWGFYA

For `OC[C@H]1O[C@@H](c2ccc(Cl)c(Cc3ccc(O[C@H]4C[C@@H]5C[C@@H]5C4)cc3)c2)[C@H](O)[C@@H](O)[C@@H]1O` [Compound represented by formula (II), (2S,3R,4R,5S,6R)-2-(3-(4-(((1R,3s,5S)-bicyclo[3.1.0]hexan-3-yl)oxy)benzyl)-4-chlorophenyl)-6-(hydroxymethyl)tetrahydro-2H-pyran-3,4,5-triol], the IC50 (commonly the point on the concentration scale where inhibition reaches its midpoint) at human SGLT-2 (human SGLT-2 in CHO cells, [14C]-AMG uptake) came out at 0.0025 µM. The compound further showed an IC50 at human SGLT-1 of 17.2 µM. Moreover, in series [1], the AUC(0-inf) (as a rule, the area under the concentration-time curve extrapolated to infinity) came out at 92100 ng·h/mL; the AUC(0-t) (in general, exposure summed from dosing to a finite time, without extrapolation to infinity) is 92100 ng·h/mL; the peak concentration (Cmax) (usually the maximum level reached in the sampled fluid or tissue) amounted to 6380 ng/mL; the Tmax (commonly the time from dosing to the highest level) amounted to 1 h. In addition, in series [1], the half-life (in general, the time needed for the level to fall by half in the phase considered) was 8.98 h.

Regarding `OC[C@H]1O[C@@H](c2ccc(Cl)c(Cc3ccc(O[C@@H]4C[C@@H]5C[C@@H]5C4)cc3)c2)[C@H](O)[C@@H](O)[C@@H]1O` [Compound represented by formula (III), (2S,3R,4R,5S,6R)-2-(3-(4-(((1R,3r,5S)-bicyclo[3.1.0]hexan-3-yl)oxy)benzyl)-4-chlorophenyl)-6-(hydroxymethyl)tetrahydro-2H-pyran-3,4,5-triol], the Selectivity on human SGLT-2 is on record as 392.77. Also, on human SGLT-1, half-maximal inhibition (IC50) was put at 3.08 µM.

Regarding `OC[C@H]1O[C@H](c2ccc(Cl)c(Cc3ccc(O[C@H]4C[C@@H]5C[C@@H]5C4)cc3)c2)[C@H](O)[C@@H](O)[C@@H]1O` [Compound represented by formula (IV), (2R,3R,4R,5S,6R)-2-(3-(4-(((1R,3s,5S)-bicyclo[3.1.0]hexan-3-yl)oxy)benzyl)-4-chlorophenyl)-6-(hydroxymethyl)tetrahydro-2H-pyran-3,4,5-triol], the Selectivity at human SGLT-2 is given as 100.34. For the same compound, the IC50 against human SGLT-1 stood at 111 µM.

Take `OC[C@H]1O[C@H](c2ccc(Cl)c(Cc3ccc(O[C@@H]4C[C@@H]5C[C@@H]5C4)cc3)c2)[C@H](O)[C@@H](O)[C@@H]1O` [Compound represented by formula (V), (2R,3R,4R,5S,6R)-2-(3-(4-(((1R,3r,5S)-bicyclo[3.1.0]hexan-3-yl)oxy)benzyl)-4-chlorophenyl)-6-(hydroxymethyl)tetrahydro-2H-pyran-3,4,5-triol]: the Selectivity at human SGLT-2 came out at 267.77. Also, on human SGLT-1, it took 75.5 µM to reach half-maximal inhibition (IC50).
